Patent US9593149B2, “Amylin and calcitonin receptor agonist” (Novo Nordisk A/S, priority 2014, dated 2017)
Numbered stars: 1 amine (or outer) side, 2 acyl side, 3 side chain; on linkers, the order of the positions; unused ones are H or OH. Peptide text beside a SMILES is read from it. * marks the point of attachment. C18 diacid = O=C(O)CCCCCCCCCCCCCCCCC(=O)*; γGlu = O=C(O)[C@H](CCC(=O)[*:2])N[*:1]

Assays:
[1] = Assay (XV) subcutaneous PK in LYD-pigs, co-formulated or co-dosed with liraglutide; format: in vivo; details: for Cmax/D / T½ (hous): LYD-pigs s.c.
Procedure: The studies were performed in female LYD pigs of SPF origin delivered from Lars Jonson, Hillerødvej 70, Lynge.
Before the animals arrived, the animal rooms and pens were cleaned and disinfected with Virkon S. During the study, the animal rooms were cleaned and washed regularly.
The pigs were group housed during the acclimatisation period. The pigs were fitted with a central venous catheter while under anaesthesia and after the single housed after catheterization in pens ≧3.1 m^2 with straw as bedding. The temperature in the rooms was set at 20−23° C. and the relative humidity to 30-70%. The rooms were illuminated to give a cycle of 12 hours light and 12 hours darkness. Light was on from 07.00 to 19.00 h.
The formulations was prepared similarly and filled in cartridges in all cases.
The animals were dosed subcutaneously as follows.
The s.c. dosing was performed in 4 mm depth, in a site of injection which was secured on beforehand by ultrasound to avoid muscular tissue or heavy vascularization. Dosing was made using NovoPen®4 and needle Novofine 28 G and a needle stopper to ensure 4 mm depth of injection. The needle was kept in the subcutis for 10 seconds after the injection to secure deposition of compound. […] The co-formulation was administered as one injection. Study was performed as a cross over study with adequate wash out between dosings.
Blood was sampled at predefined time points for up till 15 days post dosing to adequately cover the full plasma concentration-time profile of the mimylin derivative. Blood samples were drawn from a central venous catheter to jugularis made through the catheter which was afterwards flushed with 10 ml 0.9% NaCl.
For each blood sampling time point approximately 0.8 mL of whole blood was collected in a 1.5 mL EDTA coated tube, and the tube was gently turned to allowing mixing of the sample with the anticoagulant. Blood samples (for example 0.8 mL) were collected in EDTA buffer (8 mM) and then centrifuged at 4° C. and 2000 G for 10 minutes. Plasma was pipetted into Micronic tubes on dry ice, and kept at −20° C. until analysis.
Individual plasma concentration-time profiles were analysed by a non-compartmental model in Phoenix WinNonlin version 6.3 (Pharsight Inc., Mountain View, Calif., USA).
The area under the plasma concentration versus time curve (AUC, [time×concentration]) was calculated (by the Pharsight programme) after subcutaneous administration, typically until 240-288 hours post dosing, or until last measured concentration. The AUC was calculated and given as AUCinf-pred and dose normalized.
Results of co-formulation studies in LYD-pigs are summarized below

[2] = Assay (IV) determination of solubility; format: physicochemical
Procedure: Assay (IV)—Determination of Solubility
The mimylin peptide was dissolved in water at ˜500 nmol/ml and mixed 1:1 with a series of buffers (100 mM glycylglycine pH 3.0, 100 mM glycylglycine pH 4.0, 100 mM glycylglycine pH 5.0, 100 mM bistrispropane pH 6.0, 100 mM bistrispropane pH 6.5, 100 mM bistrispropane pH 7.0, 100 mM bistrispropane pH 7.5, 100 mM bistrispropane pH 8.0).

[3] = Assay (IX) pK, T½ in mini-pig; format: in vivo, Göttingen mini-pigs; details: i.v.
Procedure: Assay (IX)—pK—Determination of T½ in Mini-Pig
Pharmacokinetic (PK) studies in Göttingen mini-pigs were conducted in order to determine the T½ of the mimylin compound according to the Examples as indicated after i.v. administration.
T½ values of the amylin analogues of the invention is determined by pharmacokinetic studies in female Göttingen mini-pigs from Ellegaard Göttingen Minipigs ApS and the principles of laboratory animal care are followed.
An acclimatisation period of approximately 6-10 days was allowed before the animals entered the study. At start of the acclimatisation period the mini-pigs were about 5 to 12 months old and in the weight range of 15-35 kg. The mini-pigs had two central venous catheters inserted which were used for blood sampling.
The studies were conducted in an animal room which was illuminated to give a cycle of approximately 12 hours light and 12 hours darkness. The animals were housed individually. The animals had free access to domestic quality drinking water during the study, and no food restrictions applied for PK studies. The animals were weighed on arrival and on the days of dosing.
In the present studies the test substances were administered intravenously in approximately 5 nmol/kg dose. The animals received a single intravenous injection in one central venous catheter and blood sampling was performed from the other catheter, where possible. Each test substance was given to typically three but in some cases two or four animals.
A full plasma concentration-time profile, employing 12-16 sampling points, was obtained from each animal. In example blood samples were collected according to the following schedule:
After Intravenous Administration:
Pre-dose (0), 0.5, 1, 2, 4, 6, 8, 12, 24, 48, 72, 96, 120, 168 and 240 hours after injection. In some cases also additional blood samples up to 288 hours post injection were taken.
At each sampling time, 0.5 to 2 ml of blood was drawn from each animal. The blood samples were taken via the central venous catheter.
The 0.8 mL blood samples were collected into EDTA test tubes (8 mM EDTA). Blood samples were kept on ice for max 20 min. before centrifugation. Plasma was separated using centrifugation (i.e. at 4° C., 10 min., 2000G) and was immediately transferred to Micronic tubes on dry ice. Approximately 200 μl plasma was transferred to each Micronic tube. The plasma was stored at −20° C. until assayed. The plasma samples were assayed for the content of compound using LCMS.
The plasma concentration-time profiles were analysed by a non-compartmental pharmacokinetic analysis (NCA) using Phoenix WinNonlin 6.3 (Pharsight Inc., Mountain View, Calif., USA). NCA was performed using the individual plasma concentration-time profiles from each animal. T½ is the terminal half-life=In2/λz and was determined from λz, the first order rate constant associated with the terminal (log-linear) portion of the curve, estimated by linear regression of time vs. log concentration.
MS-Method for Amylin and Mimylin Quantification
40 μl plasma is diluted with 120 μl 66.67% EtOH+1% HCOOH and mixed. Centrifuged for 20 min. at 13000 rpm, 4° C. The supernatant is analyzed by an LC-MS method on a Sciex API 3000 and quantitated with a standard made up in plasma

[4] = Co-formulation liraglutide + Ex #46

Cmax/D ([1]; Co-dosing liraglutide + Ex #46): 5.2 kg/L
T½ (hous) ([1]; Co-dosing liraglutide + Ex #46): 129 hous
Cmax/D [1, 4]: 5.7 kg/L
T½ (hous) [1, 4]: 133 hous
Solubility ([2]; pH 3.0): ≧200 μM
Solubility ([2]; pH 4.0): ≧200 μM
Solubility ([2]; pH 5.0): ≧200 μM
Solubility ([2]; pH 6.0): ≧200 μM
Solubility ([2]; pH 6.5): ≧200 μM
Solubility ([2]; pH 7.0): ≧200 μM
Solubility ([2]; pH 7.5): ≧200 μM
Solubility ([2]; pH 8.0): ≧200 μM
PK mini pig iv T½ [3]: 118 h
Structure (SMILES): CC(C)C[C@H](NC(=O)[C@H](C)NC(=O)[C@H](C)NC(=O)[C@@H](NC(=O)[C@H](CO)NC(=O)[C@H](CC(C)C)NC(=O)[C@H](CCC(=O)O)NC(=O)[C@H](CO)NC(=O)[C@H](C)NC(=O)CC[C@H](NC(=O)CCCCCCCCCCCCCCCCC(=O)O)C(=O)O)[C@@H](C)O)C(=O)NCC(=O)N[C@@H](CCCNC(=N)N)C(=O)N[C@@H](CC(C)C)C(=O)N[C@@H](CO)C(=O)N[C@@H](C)C(=O)N[C@@H](CCC(=O)O)C(=O)N[C@@H](CC(C)C)C(=O)N[C@@H](Cc1cnc[nH]1)C(=O)N[C@@H](CCC(=O)O)C(=O)N[C@@H](CC(C)C)C(=O)N[C@@H](C)C(=O)N[C@H](C(=O)N[C@@H](CC(C)C)C(=O)N1CCC[C@H]1C(=O)N[C@@H](CCCNC(=N)N)C(=O)N[C@H](C(=O)N[C@@H](CCC(=O)O)C(=O)N[C@H](C(=O)NCC(=O)N[C@@H](CO)C(=O)NCC(=O)N[C@@H](CO)C(=O)N1CCC[C@H]1C(N)=O)[C@@H](C)O)[C@@H](C)O)[C@@H](C)O [Ex. #46, [N-terminal(C18 diacid-gGlu), des1, 30S, 31G]mimylin] ({C18 diacid-γGlu}-ASELSTAALGRLSAELHELATLPRTETGSGSP-NH2)
effect on PK profile of the co-formulated peptide ([1]; administered as co-formulations to LYD pigs): do not affect the PK profile of liraglutide
